The structures appear in SMILES notation. Active and inactive are the calls of the source. How the calls were made is not given here. Bounds are passed on as bounds.

The record followed here is PubChem BioAssay AID624254 (Broad Institute, 2012).

For the assay, the target named is V. cholerae BH1651 luxOD47E, luciferase light induction, 6 h. Put plainly: Luciferase light induction in v cholerae bh1651, agonist dose response, confirmatory (AID 624254).
The AC50 is the concentration at which the activity in the assay is half-maximal. In the case of `Cc1noc(C)c1C(=O)OCC(=O)c1c[nH]c2ccccc12`, the AC50 is > 50000 nM (inactive). Next, `CN(C(=O)Cn1cc(C(F)(F)F)cc(Cl)c1=O)C1CCS(=O)(=O)C1` (stereo unspecified): 1230 nM. Take `Cc1noc(C)c1S(=O)(=O)N1CCCC(C(=O)NCCC2=CCCCC2)C1` (stereo unspecified): the AC50 was 2640 nM. On to `NS(=O)(=O)c1ccc(NC(=O)NC2CCCCC2)cc1`, for which the AC50 is 2290 nM.

For the molecule `CN(CC(=O)Nc1c(Cl)cccc1Cl)C(=O)c1n[nH]c2ccccc12`, the AC50 is 38800 nM. For the molecule `CC(=O)Oc1ccc(-c2ccc(C(=O)O)cc2)cc1`, the AC50 was > 50000 nM (inactive).
